Active and inactive are the calls of the source. The calls are words filed in the database; no cut-off is given here.
Tests used:
Quadruplex DNA [1] = test: Binding affinity to human G4-quadruplex Pu27 DNA 5'- TGGGGAGGGTGGGGAGGGTGGGGAAGG-3' at 20 uM by UV-Visible absorption spectroscopic analysis; type: nucleic-acid assay
A-375 [2] = test: Induction of cell cycle arrest in human A-375 cells assessed assessed as cell accumulation at G0/G1 phase at 5 uM incubated for 24 hrs by propidium iodide staining based flow cytometry (reference value: 54.25 %); type: functional
A-375 [3] = test: Induction of apoptosis in human A-375 cells assessed assessed as necrotic cells at 5 uM incubated for 24 hrs by Annexin V-Elab Fluor 647/propidium iodide staining based flow cytometry (reference value: 1.45 %); type: functional
Calf thymus DNA = test: Displacement of Hoechst 33342 from calf thymus DNA incubated for 0.5 hrs by SpectraMax M2 microplate reader analysis; type: nucleic-acid assay, Bos taurus
Quadruplex DNA [4] = test: Binding affinity to human G4-quadruplex KRAS DNA 5'- AGGGCGGTGTGGGAAGAGGGAAGAGGGGGAGG-3' at 20 uM by UV-Visible absorption spectroscopic analysis; type: nucleic-acid assay
Quadruplex DNA [5] = test: Displacement of ThT from human G4-quadruplex KRAS DNA 5'- AGGGCGGTGTGGGAAGAGGGAAGAGGGGGAGG-3' incubated for 0.5 hrs by SpectraMax M2 microplate reader analysis; type: nucleic-acid assay
Quadruplex DNA [6] = test: Displacement of ThT from human G4-quadruplex Oxy28 DNA 5'- GGGGTTTTGGGGTTTTGGGGTTTTGGGG -3' incubated for 0.5 hrs by SpectraMax M2 microplate reader analysis; type: nucleic-acid assay
dsDNA [7] = test: Binding affinity to double stranded DNA ssab (unknown origin) at 20 uM by UV-Visible absorption spectroscopic analysis; type: nucleic-acid assay
A-375 [8] = test: Inhibition of RNA synthesis in human A-375 cells at 5 uM incubated for 24 hrs by EU incorporation based flow cytometry analysis; type: functional, cell-based
Quadruplex DNA [9] = test: Binding affinity to human G4-quadruplex KRAS DNA 5'- AGGGCGGTGTGGGAAGAGGGAAGAGGGGGAGG-3' at 10 uM by CD spectra analysis; type: nucleic-acid assay
Quadruplex DNA [10] = test: Displacement of ThT from human G4-quadruplex c-kit2 DNA 5'- CGGGCGGGCGCGAGGGAGGGT-3' incubated for 0.5 hrs by SpectraMax M2 microplate reader analysis; type: nucleic-acid assay
Quadruplex DNA [11] = test: Binding affinity to human G4-quadruplex c-kit2 DNA 5'- CGGGCGGGCGCGAGGGAGGGT-3' at 20 uM by UV-Visible absorption spectroscopic analysis; type: nucleic-acid assay
Quadruplex DNA [12] = test: Binding affinity to human G4-quadruplex Oxy28 DNA 5'- GGGGTTTTGGGGTTTTGGGGTTTTGGGG -3' at 20 uM by UV-Visible absorption spectroscopic analysis; type: nucleic-acid assay
A-375 [13] = test: Induction of DNA damage in human A-375 cells assessed as appearance of long DNA tails at 5 uM incubated for 24 hrs by comet assay; type: functional, cell-based
Salmon testes DNA = test: Displacement of Hoechst 33342 from salmon sperm DNA incubated for 0.5 hrs by SpectraMax M2 microplate reader analysis; type: nucleic-acid assay, Salmo salar
Quadruplex DNA [14] = test: Displacement of ThT from human G4-quadruplex Pu27 DNA 5'- TGGGGAGGGTGGGGAGGGTGGGGAAGG-3' incubated for 0.5 hrs by SpectraMax M2 microplate reader analysis; type: nucleic-acid assay
A-375 [15] = test: Induction of apoptosis in human A-375 cells assessed assessed as viable cells at 5 uM incubated for 24 hrs by Annexin V-Elab Fluor 647/propidium iodide staining based flow cytometry (reference value: 91.1 %); type: functional; settings: read-out: Activity
Quadruplex DNA [16] = test: Binding affinity to human G4-quadruplex 22AG DNA 5'- AGGGTTAGGGTTAGGGTTAGGG -3' at 20 uM by UV-Visible absorption spectroscopic analysis; type: nucleic-acid assay
A-375 [17] = test: Induction of cell cycle arrest in human A-375 cells assessed assessed as cell accumulation at S phase at 5 uM incubated for 24 hrs by propidium iodide staining based flow cytometry (reference value: 30.05 %); type: functional
Quadruplex DNA [18] = test: Displacement of ThT from human G4-quadruplex Bcl2 DNA 5'- CGGGCGCGGGAGGAAGGGGGCGGGAGC-3' incubated for 0.5 hrs by SpectraMax M2 microplate reader analysis; type: nucleic-acid assay
dsDNA [19] = test: Displacement of Hoechst 33342 from double stranded DNA ssab (unknown origin) incubated for 0.5 hrs by SpectraMax M2 microplate reader analysis; type: nucleic-acid assay
Quadruplex DNA [20] = test: Binding affinity to human G4-quadruplex VEGF DNA 5'- GGGCGGGCCGGGGGCGGG-3' at 20 uM by UV-Visible absorption spectroscopic analysis; type: nucleic-acid assay
Quadruplex DNA [21] = test: Binding affinity to human G4-quadruplex Oxy28 DNA 5'- GGGGTTTTGGGGTTTTGGGGTTTTGGGG -3' at 10 uM by CD spectra analysis; type: nucleic-acid assay
A-375 [22] = test: Induction of apoptosis in human A-375 cells assessed assessed as late apoptotic cells at 5 uM incubated for 24 hrs by Annexin V-Elab Fluor 647/propidium iodide staining based flow cytometry (reference value: 6.31 %); type: functional
Quadruplex DNA [23] = test: Binding affinity to human G4-quadruplex Bcl2 DNA 5'- CGGGCGCGGGAGGAAGGGGGCGGGAGC-3' at 20 uM by UV-Visible absorption spectroscopic analysis; type: nucleic-acid assay
A-375 [24] = test: Induction of apoptosis in human A-375 cells assessed assessed as early apoptotic cells at 5 uM incubated for 24 hrs by Annexin V-Elab Fluor 647/propidium iodide staining based flow cytometry (reference value: 1.14 %); type: functional
Quadruplex DNA [25] = test: Displacement of ThT from human G4-quadruplex VEGF DNA 5'- GGGCGGGCCGGGGGCGGG-3' incubated for 0.5 hrs by SpectraMax M2 microplate reader analysis; type: nucleic-acid assay
A-375 [26] = test: Inhibition of DNA synthesis in human A-375 cells at 5 uM incubated for 24 hrs by Edu incorporation based flow cytometry analysis; type: functional, cell-based
A-375 [27] = test: Induction of cell cycle arrest in human A-375 cells assessed assessed as cell accumulation at G2/M phase at 5 uM incubated for 24 hrs by propidium iodide staining based flow cytometry (reference value: 15.70 %); type: functional
Quadruplex DNA [28] = test: Displacement of ThT from human G4-quadruplex 22AG DNA 5'- AGGGTTAGGGTTAGGGTTAGGG -3' incubated for 0.5 hrs by SpectraMax M2 microplate reader analysis; type: nucleic-acid assay

Activity (Quadruplex DNA [1]): Active
DC50 (Calf thymus DNA): 14.4 µM
Activity (Quadruplex DNA [4]): Active
DC50 (Quadruplex DNA [5]): 9.08 µM
DC50 (Quadruplex DNA [6]): 1.98 µM
Activity (dsDNA [7]): Active
Activity (Quadruplex DNA [9]): inactive
DC50 (Quadruplex DNA [10]): 1.05 µM
Activity (Quadruplex DNA [11]): Active
Activity (Quadruplex DNA [12]): Active
DC50 (Salmon testes DNA): 10.8 µM
DC50 (Quadruplex DNA [14]): 0.99 µM
Activity (Quadruplex DNA [16]): Active
Kd (Quadruplex DNA [18]): 1.52 µM
DC50 (dsDNA [19]): 2.97 µM
Activity (Quadruplex DNA [20]): Active
Activity (Quadruplex DNA [21]): inactive
Activity (Quadruplex DNA [23]): Active
DC50 (Quadruplex DNA [25]): 0.59 µM
DC50 (Quadruplex DNA [28]): 15.5 µM
SMILES: COc1cc2c[n+](C)c3c4cc5c(cc4ccc3c2cc1OC)OCO5 [NITIDINE]
Activity (A-375 [2]): 40.5%
Activity (A-375 [3]): 6.7%
inhibition (A-375 [8]): Active
Activity (A-375 [13]): Active
viability at 5 µM (A-375 [15]): 30.8%
Activity (A-375 [17]): 30.21%
Activity (A-375 [22]): 60.4%
Activity (A-375 [24]): 2.03%
inhibition (A-375 [26]): Active
Activity (A-375 [27]): 29.3%
